The text below walks through data of patent US11911349B2, “Rapidly improving vascular conditions by administering vitamin K” (NATTOPHARMA AS, priority 2018, dated 2024).

One series deals with ApoE/LDLR−/− mice. The series can be described thus: Example 2: histological assessment of plaque size, composition and vessel wall area in BCA. The settings on record: two months. In kind it is in vivo. The text has this: For the determination of atherosclerotic plaque area and composition BCA was dissected, fixed in 4% buffered formalin and embedded in paraffin. 5 μm-thick serial sections of BCA were collected from proximal, middle and distal parts of artery. Originally developed staining with Unna's orcein combined with Martius, Scarlet and Blue trichrome (OMSB), was applied on every tenth section (50 μm interval between each section) for visualization of collagen, elastin, fibrin, red blood cells and vascular smooth muscle cells within atherosclerotic plaque. The areas of particular components of atherosclerotic plaque as well as artery lumen and wall were determined after Columbus-based software processing (FIG. 1B) using a previously developed algorithm [Gajda M, Jasztal A, Banasik T, Jasek-Gajda E, Chlopicki S. Combined orcein and martius scarlet blue (OMSB) staining for qualitative and quantitative analyses of atherosclerotic plaques in brachiocephalic arteries in apoE/LDLR−/− mice. Histochem Cell Biol 2017. doi:10.1007/s00418-017-1538-8.].

Series [1] has as its system endothelial nitric oxide synthase (eNOS)-dependent nitric oxide (NO) production. Put plainly: Example 3: endothelial NO production in ex vivo aorta by EPR spin-trapping. The note with it: 0.05 mg/kg b.w./day, vs untreated age-matched mice. The text has this:
For measurements of endothelial nitric oxide synthase (eNOS)-dependent nitric oxide (NO) production, EPR spin-trapping with diethyldithiocarbamic acid sodium salt (DETC) was used ex vivo, as described in Przyborowski K, Proniewski B, Czarny J, Smeda M, Sitek B, Zakrzewska A, et al. Vascular Nitric Oxide-Superoxide Balance and Thrombus Formation after Acute Exercise. Med Sci Sport Exerc 2018:1. doi:10.1249/MSS.0000000000001589, with minor modifications. Isolated aorta cleared from surrounding tissue was opened longitudinally and preincubated with 10 μM L-NIL (N6-(1-Iminoethyl)-lysine, hydrochloride) in Krebs-HEPES buffer for 30 minutes at 37° C. in a well of a 48-well plate. Next, 250 μL of Fe(DETC)2 colloid was added and aorta was stimulated with calcium ionophore A23187 (the final concentration was 1 μM) and subsequently, incubated for 90 minutes at 37° C. Finally, aorta was weighed and frozen in liquid nitrogen (suspended in fresh buffer) into the middle of a 400 μL column of Krebs-Hepes buffer and stored at −80° C. until measured. EPR spectra were obtained using an X-band EPR spectrometer (EMX Plus, Bruker, Germany), equipped with a rectangular resonator cavity H102. Signals were quantified by measuring the total amplitude of the NO—Fe(DETC)2 after correction of baseline. The quantitative results of NO production assessed by EPR were expressed in AU/mg of tissue.

A further series relates to thrombin generation. The series can be described thus: Example 3: thrombin generation by calibrated automated thrombogram (CAT) in plasma. The series is classed as in vivo, mice. The settings on record: eight weeks. Here is the method:
Thrombin generation was measured in platelet-poor mice plasma using calibrated automated thrombography (CAT) technique as described in Hemker H C, Giesen P, Al Dieri R, Regnault V, de Smedt E, Wagenvoord R, et al. Calibrated automated thrombin generation measurement in clotting plasma. Pathophysiol Haemost Thromb 2003; 33:4-15. doi:71636. Thrombin generation was activated by mixing 21 μL of diluted plasma (1:1 with BSA5 buffer) with 7 μIL of fluorogenic substrate (Z-Gly-Gly-Arg-AMC, 16.6 mM) and 14 μL of trigger solution containing phospholipids, tissue factor and CaCl2 (4 μM, 1 pM and 16.6 mM, respectively). In the calibration wells, the 14 μL of reagents were replaced with calibrator (102 nM). Immediately after the activation, 5 μL of the mixture was pipetted on paper disks in a flat bottom 96-well polystyrene plate and covered with 40 μL of mineral oil. Fluorescent signals were measured using the Fluoroskan Ascent software (Thermo Labsystems, Helsinki, Finland) and transformed into thrombin concentration as described in Hemker H C, Kremers R. Data management in Thrombin Generation. Thromb Res 2013; 131:3-11. doi:10.1016/j.thromres.2012.10.011. The parameters analyzed included endogenous thrombin potential (ETP), peak thrombin concentration (peak), and lag time.

With `CC(C)=CCC/C(C)=C/CC/C(C)=C/CC/C(C)=C/CC/C(C)=C/CC/C(C)=C/CC/C(C)=C/CC1=C(C)C(=O)c2ccccc2C1=O` [MK-7, menaquinone-7], in the series on ApoE/LDLR−/− mice (high dose 10 mg/kg b.w./day), the “content of collagen in plaque, treated vs untreated” value is “lack of differences”; the “decrease in lipid core expressed as percent of plaque” value was “about 17%”; the “decrease in vessel wall area (VWA) of BCA” value is reported as “about 5%”; the “effect on plaque size” value was “did not result in a beneficial effect”. In the series on ApoE/LDLR−/− mice (high dose 10 mg/kg b.w./day), the “lumen area expressed as percent of IWA” value is on record as “did not change” and the “plaque area expressed as percent of IWA” value is recorded as “did not change”. For the same compound, in the series on ApoE/LDLR−/− mice (low dose 0.03 mg/kg b.w./day), the “content of collagen in plaque, treated vs untreated” value is given as “lack of differences”; the “decrease in lipid core expressed as percent of plaque” value is listed as “about 17%”; the “decrease in vessel wall area (VWA) of BCA” value is “about 5%”; the “effect on plaque size” value was “did not result in a beneficial effect”. Also, in the series on ApoE/LDLR−/− mice (low dose 0.03 mg/kg b.w./day), the “lumen area expressed as percent of IWA” value is on record as “did not change” and the “plaque area expressed as percent of IWA” value is on record as “did not change”. Besides, the “internal wall area (IWA)” value in the series with ApoE/LDLR−/− mice (lower dose 0.03 mg/kg b.w./day, not visible for entire vessel) is given as “decreased only in the middle part of the vessel”. For the same compound, the “nitric oxide production in ex vivo aorta measured by EPR” value in series [1] was “increased”. In the series on thrombin generation (0.03 mg/kg b.w./day), the thrombin generation result is given as “did not affect”. For the same compound, in the series with thrombin generation (10 mg/kg b.w./day), the thrombin generation result is on record as “did not affect”.
